Laboratory results as given in patent US7767659B2, “Synthesis of naturally occurring ecteinascidins and related compounds” (Pharma Mar, S.A., priority 2002, dated 2010).
Read-outs that look alike come from different tables or passages of the source.

Columns and labels:
A-549 = experiment: cells
Method in brief: (§1)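 Colorimetric SRB read (490 nm) on triplicate wells after 48 h at 37 °C, 5% CO2. Dose range 10 to 10^−8 μg/ml; 5×10^3 cells/well pre-attached 18 h.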

HT-29 = experiment: cells
Method in brief: as §1

LoVo = experiment: cells
Method in brief: as §1

DU-145 = experiment: Inhibition of cells growth by colorimetric assay (SRB)
Method in brief: as §1

HeLa-APL = experiment: as above
Method in brief: as §1

HeLa = experiment: as above
Method in brief: as §1

IGROV-1 = experiment: as above
Method in brief: as §1

IGROV-ET = experiment: as above
Method in brief: as §1

K-562 = experiment: as above
Method in brief: as §1

LNCaP = experiment: as above
Method in brief: as §1

LoVo-Dox = experiment: as above
Method in brief: as §1

PANC-1 = experiment: as above
Method in brief: as §1

SK-BR-3 = experiment: as above
Method in brief: as §1

SK-MEL-28 = experiment: as above
Method in brief: as §1

C=CCN1C2Cc3cc(C)c(OC)c(O)c3C1C1C3SCC(NC(C)=O)C(=O)OCC(c4c5c(c(C)c(OC(C)=O)c43)OCO5)N1C2C#N (stereo not drawn) [compound 24] was tested, and the “TGI A549” value (A-549; A549, SRB, 48 hours exposure) was 4.62E−08 Molar, the GI50 (A-549; read-out: GI50 A549, A549, SRB, 48 hours exposure) was 21.9 nM and the CC50 (A-549; read-out: LC50 A549, A549, SRB, 48 hours exposure) was 97.4 nM. The “TGI HT29” value (HT-29; HT29, SRB, 48 hours exposure) was 1.39E−08 Molar, the GI50 (HT-29; read-out: GI50 HT29, HT29, SRB, 48 hours exposure) was 5.17 nM and the CC50 (HT-29; read-out: LC50 HT29, HT29, SRB, 48 hours exposure) was 14500 nM. For the same molecule, the “TGI LOVO” value (LoVo; LOVO, SRB, 48 hours exposure) was 8.21E−08 Molar, the GI50 (LoVo; read-out: GI50 LOVO, LOVO, SRB, 48 hours exposure) was 26.1 nM and the CC50 (LoVo; read-out: LC50 LOVO, LOVO, SRB, 48 hours exposure) was 14500 nM. The “TGI DU145” value (DU-145; DU145, SRB, 48 hours exposure) was 5.23E−08 Molar, the GI50 (DU-145; read-out: GI50 DU145, DU145, SRB, 48 hours exposure) was 27.8 nM and the CC50 (DU-145; read-out: LC50 DU145, DU145, SRB, 48 hours exposure) was 125 nM. The “TGI HELA-APL” value (HeLa-APL; HELA-APL, SRB, 48 hours exposure) was 4.65E−08 Molar, the GI50 (HeLa-APL; read-out: GI50 HELA-APL, HELA-APL, SRB, 48 hours exposure) was 20.3 nM and the CC50 (HeLa-APL; read-out: LC50 HELA-APL, HELA-APL, SRB, 48 hours exposure) was 107 nM. For the same molecule, the “TGI HELA” value (HeLa; HELA, SRB, 48 hours exposure) was 4.76E−08 Molar, the GI50 (HeLa; read-out: GI50 HELA, HELA, SRB, 48 hours exposure) was 20.3 nM and the CC50 (HeLa; read-out: LC50 HELA, HELA, SRB, 48 hours exposure) was 112 nM. The “TGI IGROV” value (IGROV-1; IGROV, SRB, 48 hours exposure) was 3.18E−08 Molar, the GI50 (IGROV-1; read-out: GI50 IGROV, IGROV, SRB, 48 hours exposure) was 8.21 nM and the CC50 (IGROV-1; read-out: LC50 IGROV, IGROV, SRB, 48 hours exposure) was 110 nM. The “TGI IGROV-ET” value (IGROV-ET; IGROV-ET, SRB, 48 hours exposure) was 6.20E−08 Molar, the GI50 (IGROV-ET; read-out: GI50 IGROV-ET, IGROV-ET, SRB, 48 hours exposure) was 29.5 nM and the CC50 (IGROV-ET; read-out: LC50 IGROV-ET, IGROV-ET, SRB, 48 hours exposure) was 130 nM. The “TGI K562” value (K-562; K562, SRB, 48 hours exposure) was 1.71E−08 Molar, the GI50 (K-562; read-out: GI50 K562, K562, SRB, 48 hours exposure) was 4.07 nM and the CC50 (K-562; read-out: LC50 K562, K562, SRB, 48 hours exposure) was 93.8 nM. The “TGI LNCAP” value (LNCaP; LNCAP, SRB, 48 hours exposure) was 2.53E−08 Molar, the GI50 (LNCaP; read-out: GI50 LNCAP, LNCAP, SRB, 48 hours exposure) was 8.4 nM and the CC50 (LNCaP; read-out: LC50 LNCAP, LNCAP, SRB, 48 hours exposure) was 64.4 nM. The “TGI LOVO-DOX” value (LoVo-Dox; LOVO-DOX, SRB, 48 hours exposure) was 1.74E−06 Molar, the GI50 (LoVo-Dox; read-out: GI50 LOVO-DOX, LOVO-DOX, SRB, 48 hours exposure) was 115 nM and the CC50 (LoVo-Dox; read-out: LC50 LOVO-DOX, LOVO-DOX, SRB, 48 hours exposure) was 14500 nM. For the same molecule, the “TGI PANC-1” value (PANC-1; PANC-1, SRB, 48 hours exposure) was 9.19E−08 Molar, the GI50 (PANC-1; read-out: GI50 PANC-1, PANC-1, SRB, 48 hours exposure) was 30.1 nM and the CC50 (PANC-1; read-out: LC50 PANC-1, PANC-1, SRB, 48 hours exposure) was 14500 nM. For the same molecule, the “TGI SK-BR3” value (SK-BR-3; SK-BR3, SRB, 48 hours exposure) was 6.38E−08 Molar, the GI50 (SK-BR-3; read-out: GI50 SK-BR3, SK-BR3, SRB, 48 hours exposure) was 24.8 nM and the CC50 (SK-BR-3; read-out: LC50 SK-BR3, SK-BR3, SRB, 48 hours exposure) was 269 nM. For the same molecule, the “TGI MEL-28” value (SK-MEL-28; MEL-28, SRB, 48 hours exposure) was 4.27E−08 Molar, the GI50 (SK-MEL-28; read-out: GI50 MEL-28, MEL-28, SRB, 48 hours exposure) was 20.1 nM and the CC50 (SK-MEL-28; read-out: LC50 MEL-28, MEL-28, SRB, 48 hours exposure) was 90.9 nM.

CCCCCCCC(=O)Oc1c(C)c2c(c3c1[C@H]1SC[C@]4(NCCc5cc(O)c(OC)cc54)C(=O)OC[C@@H]3N3C1[C@@H]1N[C@@H](Cc4cc(C)c(OC)c(O)c41)[C@@H]3O)OCO2 (stereo partly drawn) [compound 54] gave a GI50 (A-549; Homo sapiens, A549, 48 h, read-out: A549 GI50) of 20.2 nM, a CC50 (A-549; Homo sapiens, A549, 48 h, read-out: A549 LC50) of 636 nM and an IC (TGI) (A-549; Homo sapiens, A549, 48 h, read-out: A549 TGI) of 66.3 nM. The GI50 (HT-29; Homo sapiens, HT-29, 48 h, read-out: HT29 GI50) was 29.9 nM, the CC50 (HT-29; Homo sapiens, HT-29, 48 h, read-out: HT29 LC50) was 12000 nM and the IC (TGI) (HT-29; Homo sapiens, HT-29, 48 h, read-out: HT29 TGI) was 123 nM. For the same molecule, the GI50 (LoVo; Homo sapiens, LoVo, 48 h, read-out: LOVO GI50) was 3.85 nM, the CC50 (LoVo; Homo sapiens, LoVo, 48 h, read-out: LOVO LC50) was 12000 nM and the IC (TGI) (LoVo; Homo sapiens, LoVo, 48 h, read-out: LOVO TGI) was 14.4 nM. It also gave a GI50 (DU-145; Homo sapiens, DU-145, 48 h, read-out: DU145 GI50) of 3.76 nM, a CC50 (DU-145; Homo sapiens, DU-145, 48 h, read-out: DU145 LC50) of 12000 nM and an IC (TGI) (DU-145; Homo sapiens, DU-145, 48 h, read-out: DU145 TGI) of 22 nM. It also gave a GI50 (HeLa-APL; Homo sapiens, 48 h, read-out: HELA-APL GI50) of 13.3 nM, a CC50 (HeLa-APL; Homo sapiens, 48 h, read-out: HELA-APL LC50) of 459 nM and an IC (TGI) (HeLa-APL; Homo sapiens, 48 h, read-out: HELA-APL TGI) of 143 nM. For the same molecule, the GI50 (HeLa; Homo sapiens, HeLa, 48 h, read-out: HELA GI50) was 21.9 nM, the CC50 (HeLa; Homo sapiens, HeLa, 48 h, read-out: HELA LC50) was 376 nM and the IC (TGI) (HeLa; Homo sapiens, HeLa, 48 h, read-out: HELA TGI) was 64.1 nM. It also gave a GI50 (IGROV-1; Homo sapiens, IGROV-1, 48 h, read-out: IGROV GI50) of 6.56 nM, a CC50 (IGROV-1; Homo sapiens, IGROV-1, 48 h, read-out: IGROV LC50) of 3370 nM and an IC (TGI) (IGROV-1; Homo sapiens, IGROV-1, 48 h, read-out: IGROV TGI) of 39.4 nM. It also gave a GI50 (IGROV-ET; Homo sapiens, 48 h, read-out: IGROV-ET GI50) of 37 nM, a CC50 (IGROV-ET; Homo sapiens, 48 h, read-out: IGROV-ET LC50) of 12000 nM and an IC (TGI) (IGROV-ET; Homo sapiens, 48 h, read-out: IGROV-ET TGI) of 120 nM. The GI50 (K-562; Homo sapiens, K562, 48 h, read-out: K562 GI50) was 1.88 nM, the CC50 (K-562; Homo sapiens, K562, 48 h, read-out: K562 LC50) was 2700 nM and the IC (TGI) (K-562; Homo sapiens, K562, 48 h, read-out: K562 TGI) was 5.18 nM. The GI50 (LNCaP; Homo sapiens, LNCaP, 48 h, read-out: LNCAP GI50) was 7.42 nM, the CC50 (LNCaP; Homo sapiens, LNCaP, 48 h, read-out: LNCAP LC50) was 109 nM and the IC (TGI) (LNCaP; Homo sapiens, LNCaP, 48 h, read-out: LNCAP TGI) was 29.3 nM. For the same molecule, the GI50 (LoVo-Dox; Homo sapiens, 48 h, read-out: LOVO-DOX GI50) was 338 nM, the CC50 (LoVo-Dox; Homo sapiens, 48 h, read-out: LOVO-DOX LC50) was 12000 nM and the IC (TGI) (LoVo-Dox; Homo sapiens, 48 h, read-out: LOVO-DOX TGI) was 12000 nM. It also gave a GI50 (PANC-1; Homo sapiens, PANC-1, 48 h, read-out: PANC-1 GI50) of 23 nM, a CC50 (PANC-1; Homo sapiens, PANC-1, 48 h, read-out: PANC-1 LC50) of 5310 nM and an IC (TGI) (PANC-1; Homo sapiens, PANC-1, 48 h, read-out: PANC-1 TGI) of 64.8 nM. For the same molecule, the GI50 (SK-BR-3; Homo sapiens, SK-BR-3, 48 h, read-out: SK-BR3 GI50) was 12.7 nM, the CC50 (SK-BR-3; Homo sapiens, SK-BR-3, 48 h, read-out: SK-BR3 LC50) was 12000 nM and the IC (TGI) (SK-BR-3; Homo sapiens, SK-BR-3, 48 h, read-out: SK-BR3 TGI) was 154 nM. The GI50 (SK-MEL-28; Homo sapiens, SK-MEL-28, 48 h, read-out: MEL-28 GI50) was 15.5 nM, the CC50 (SK-MEL-28; Homo sapiens, SK-MEL-28, 48 h, read-out: MEL-28 LC50) was 83.9 nM and the IC (TGI) (SK-MEL-28; Homo sapiens, SK-MEL-28, 48 h, read-out: MEL-28 TGI) was 36.1 nM.
